The target in this test is Cathepsin S (Homo sapiens, UniProt P25774). The test is described as follows: Inhibition of recombinant human cathepsin S.
Cathepsin S, sequence (P25774 whole entry): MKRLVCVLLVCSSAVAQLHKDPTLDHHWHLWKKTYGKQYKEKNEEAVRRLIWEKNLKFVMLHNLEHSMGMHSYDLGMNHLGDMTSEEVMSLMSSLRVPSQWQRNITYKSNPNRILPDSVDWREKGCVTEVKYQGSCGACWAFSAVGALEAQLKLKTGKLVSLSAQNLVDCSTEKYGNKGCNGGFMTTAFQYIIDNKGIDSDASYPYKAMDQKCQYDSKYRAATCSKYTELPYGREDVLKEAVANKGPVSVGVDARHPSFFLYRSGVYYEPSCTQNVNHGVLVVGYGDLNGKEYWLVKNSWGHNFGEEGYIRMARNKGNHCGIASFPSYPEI

With `O=C(N[C@@H](Cc1ccccc1)C(=O)N[C@@H]1C(=O)N[C@@H]1Oc1ccccc1)OCc1ccccc1` [[(S)-1-((3S,4R)-2-Oxo-4-phenoxy-azetidin-3-ylcarbamoyl)-2-phenyl-ethyl]-carbamic acid benzyl ester], the IC50 (in general, the point on the concentration scale where inhibition reaches its midpoint) was under 0.1 nM.
